Data published in patent US20220133652A1, “A FORMULATION FOR IMPROVING SEIZURE CONTROL” (ZOGENIX INTERNATIONAL LIMITED, priority 2019, published 2022).

Key:
[1] = test system: pattern sensitivity-induced seizures; conditions: one child; cited from earlier work
[2] = test system: self-induced photosensitive seizures; conditions: four cases; cited from earlier work
[3] = Serum samples of patient analyzed for fenfluramine and norfenfluramine; assay type: in vivo, human
Experimental: (§1) Fenfluramine was administered as an oral solution via a gastric feeding tube at an initial dose of 0.5 mg/kg/day for about 5 days. An echocardiogram was performed to screen for cardiac valve abnormalities (CVD) and/or pulmonary arterial hypertension (PAH) and to establish a baseline for subsequent echocardiograms which will be used to monitor the patient's cardiovascular status over the treatment period, and repeated approximately every 3 months over the next year of continuing fenfluramine administration. […] After 4 days of fenfluramine administration Patient was able to be weaned from general anesthesia without return to seizures and the immediate crisis resolved, however, seizures began to recur after 3 more days without anesthesia and the fenfluramine dosage was adjusted up to 0.8 mg/kg/day and bolus doses of valproate or phenobarbital were administered as needed. The treating physician assessed the patient as having emerged from the SRSE crisis about 2 weeks after initiation of fenfluramine therapy. The patient remains on fenfluramine, along with levetiracetam, clobazam and valproate, and was discharged from the ICU about 1 month (approximately 32 days) after initiation of fenfluramine therapy.

[4] = test system: super-refractory status epilepticus; assay: Case study: fenfluramine in patient in medically-induced coma, weaning from general anesthesia; assay type: in vivo, human
Experimental: Fenfluramine was tested on a patient with an established diagnosis Dravet Syndrome (DS) (February, 2008) and having undergone confirmatory genetic testing, they were hospitalized in November 2018 and had been in an intensive care unit (ICU) under general anesthesia for management of super-refractory status epilepticus. At the beginning of the testing period, they had been in the ICU for around 32 days, and multiple attempts to wean them from anesthetic agents (pentobarbital and ketamine) were unsuccessful, with repetitive and then continuous tonic seizures recurring within hours. Table 1, below, provides a complete list of all anti-epileptic drugs (AEDs) assayed in managing the patient's seizures. Some had been determined to lack efficacy, while those marked as current were still being administered.
After these other AEDs failed, the attending physician tested fenfluramine, beginning on Dec. 19, 2018. A baseline echocardiogram was taken with the patient still in ICU setting. The patient's medications (beyond anesthetic agents) at that time included valproic acid, levetiracetam, clobazam, phenobarbital, ketosis, and VNS therapy, and felbamate was most recently added after failure of the last attempt to withdraw anesthesia.
as §1

[5] = test system: refractory epilepsy; conditions: dose of 0.5 to 1 mg/kg/day, children; cited from earlier work
[6] = reason for withdrawal from the US market in 1997; cited from earlier work

| SMILES | Effect on self-induced seizures [1] | Response of self-induced photosensitive seizures to treatment [2] | concentration at 20 days after start of dosing ([3]; human, 0.8 mg/kg/day, SUB 001, Visit 1, Timepoint 99, SAE 8 Jan. 2019, fenfluramine oral solution via gastric feeding tube, read-out: Conc. in serum) [ng/mL] | concentration at 21 days after start of dosing ([3]; human, 0.8 mg/kg/day, SUB 001, Visit 2, Timepoint 99, SAE 9 Jan. 2019, fenfluramine oral solution via gastric feeding tube, read-out: Conc. in serum) [ng/mL] | concentration at 22 days after start of dosing ([3]; human, 0.8 mg/kg/day, SUB 001, Visit 3, Timepoint 99, SAE 10 Jan. 2019, fenfluramine oral solution via gastric feeding tube, read-out: Conc. in serum) [ng/mL] | Duration of administration after which patient was weaned from general anesthesia without return to seizures ([4]; 0.5 mg/kg/day oral solution via gastric feeding tube, adjunctive to other AEDs, one patient) [days] | Time after initiation of therapy until patient assessed as emerged from the SRSE crisis ([4]; 0.5 then 0.8 mg/kg/day, bolus valproate or phenobarbital as needed) | Time without anesthesia until seizures began to recur ([4]; after weaning, at 0.5 mg/kg/day, dose then adjusted up to 0.8 mg/kg/day) [days] | Seizure control in patients with SRSE ([4]; conclusion from the case of patient) | Time after initiation of therapy until discharge from the ICU ([4]; patient remains on fenfluramine with levetiracetam, clobazam and valproate) | Effect on number of seizures [5] | Adverse effects associated with use [6] | Conc. in serum ([3]; SUB 001, Visit 1, Timepoint 99, SAE 8 Jan. 2019, fenfluramine oral solution via gastric feeding tube) [ng/mL] | Conc. in serum ([3]; SUB 001, Visit 2, Timepoint 99, SAE 9 Jan. 2019, fenfluramine oral solution via gastric feeding tube) [ng/mL] | Conc. in serum ([3]; SUB 001, Visit 3, Timepoint 99, SAE 10 Jan. 2019, fenfluramine oral solution via gastric feeding tube) [ng/mL] |
| --- | --- | --- | --- | --- | --- | --- | --- | --- | --- | --- | --- | --- | --- | --- | --- |
| CCNC(C)Cc1cccc(C(F)(F)F)c1 (racemic) [Fenfluramine, (RS)-N-ethyl-1-[3-(trifluoromethyl)phenyl]propan-2-amine] | successfully terminated these self-induced seizures | responded to treatment | 17.7 | 17.8 | 22.2 | 4 | about 2 weeks | 3 | improved seizure control | approximately 32 days | reduction in the number of seizures | cardiac valvular fibrosis and pulmonary hypertension |  |  |  |
| CC(N)Cc1cccc(C(F)(F)F)c1 (stereo not drawn) [Norfenfluramine] |  |  |  |  |  |  |  |  |  |  |  |  | 23.8 | 23.1 | 27.6 |
